Data on 15 molecules can be found in patent publication US10597405B2, “Chemical compounds” (ASTRAZENECA AB, priority 2017, dated 2020).

The IC50 is the concentration needed to halve the response being measured. High values mean lower potency, low ones higher potency.

The first assay has as its target T1, KRasG12C (Homo sapiens, UniProt P01116, G12C).
T1 construct: biotin (biotinylated); made in house
Briefly: KRasG12C Mass Spectrometry adducting assay. The note with it: 10 μM test compound, 4 μM KRasG12C, 4 hours reaction; single experiment or average of two or more. The format is binding. As to the method: KRasG12C Mass Spectrometry Adducting Assay
Enzyme solutions were prepared in assay buffer containing 20 mM HEPES (pH 7.5), 5 mM MgCl2, and 150 mM NaCl. 4 μM GDP loaded biotinylated KRas^G12C was prepared in assay buffer and 50 μl added into each well of a 96 well polypropylene assay plate (Greiner, #651201) containing 500 nl of 1 mM test compounds (final concentration 10 μM), this was allowed to react for 4 hours before the addition of 50 μl 1% Formic acid to quench the reaction. The plate was sealed before reading on a Xevo G2 QTOF (Waters) and Acquity LC system (Waters). 10 μl of sample was injected onto a Xbridge BEH300; C4; 3.5 um; 2.1×50 mm column (Waters) running a 3 minute gradient. Blank samples were run in between each test sample.
Data was analysed in Mass Lynx software (Waters), the Total ion count (TIC) trace was used and the eluted protein peak data combined. Using the combined spectrum the data was deconvoluted using MaxEnt1 method. The peak area for apo-protein KRas^G12C (APO) and KRAS+relative cmpd mass (adduct) were measured, and a percentage adduct was calculated using the following calculation: Percent adduct=100*(area of adduct peak/(sum of APO+adduct peaks)
With `C=CC(=O)N1CCN2c3c(cnc4cc(-c5c(C)ccc6[nH]c(=O)[nH]c56)c(Cl)cc34)OC[C@H]2C1` (single isomer, unassigned) [Compound 71], the “KRasG12C M.S. Binding Mean adduct %” value is reported as 94%.
With `C=CC(=O)N1CCN2c3c(cnc4c(F)c(-c5c(O)cccc5F)c(Cl)cc34)N(C)C(=O)C2C1` (single isomer, unassigned) [Example 20, 3-acryloyl-11-chloro-9-fluoro-10-(2-fluoro-6-hydroxyphenyl)-6-methyl-2,3,4,4a-tetrahydro-1H-pyrazino[1′,2′:4,5]pyrazino[2,3-c]quinolin-5(6H)-one], the “KRasG12C M.S. Binding Mean adduct %” value is listed as 51%.
On the same count and under the same terms, as for `C=CC(=O)N1CCN2c3c(cnc4cc(-c5c(O)cccc5F)c(Cl)cc34)N(CCN(C)C)C[C@H]2C1` [Example 12, 1-((4aS)-11-Chloro-6-(2-(dimethylamino)ethyl)-10-(2-fluoro-6-hydroxyphenyl)-1,2,4,4a,5,6-hexahydro-3H-pyrazino[1′,2′:4,5]pyrazino[2,3-c]quinolin-3-yl)prop-2-en-1-one], the figure is 75%.

In the next assay the target is T1, KRasG12C. Briefly: KRasG12C functional assay (HTRF nucleotide exchange / Raf RBD binding). In kind it is biochemical. Particulars: GDP loaded biotinylated KRasG12C, samples incubated 4 hrs, FRET readout; single experiment or average of two or more. As to the method: KRasG12C Functional Assay
All enzyme and substrate solutions were prepared in assay buffer containing 20 mM HEPES (pH 7.5), 5 mM MgCl2, 150 mM NaCl, and 0.01% Tween 20. […] In a separate mix 20 nM GST-Raf Ras binding domain (GST-Raf RBD, purified in house) and 4 μg/ml anti-GST XL665 antibody (Cisbio) was prepared in assay buffer containing 50 mM Potassium Fluoride and 0.05 mg/ml BSA and equilibrated for 4 hours before adding 0.6 μM Guanosine 5′-[γ-thio]triphosphate (GTPγS, Sigma) and 0.08 μM SOS (purified in house). 5 μl of the GST-RAF RBD mix was then dispensed into each well of the assay plate. […] This is detected simultaneously via the specific binding interaction between active GTPγS KRas^G12C with GST-Raf RBD which brings the europium and XL665 into close proximity enabling an increased FRET signal to be detected on a Pherastar (BMG) plate reader equipped with the HTRF filter module. […] IC50 values were calculated from normalised dose-response response FRET data curve fitted in Genedata screener (Basel, Switzerland).
For orientation: In TR-FRET formats the signal depends on donor and acceptor labels being close together.
Molecule `C=CC(=O)N1CCN2c3c(cnc4cc(-c5c(C)ccc6[nH]c(=O)[nH]c56)c(Cl)cc34)OC[C@H]2C1` (single isomer, unassigned) [Compound 71] gave a 50% inhibitory concentration (IC50) of 47 nM.
Still for that read-out and setting: as for `C=CC(=O)N1CCN2c3c(cnc4c(F)c(-c5c(O)cccc5F)c(Cl)cc34)N(C)C(=O)C2C1` (single isomer, unassigned) [Example 20, 3-acryloyl-11-chloro-9-fluoro-10-(2-fluoro-6-hydroxyphenyl)-6-methyl-2,3,4,4a-tetrahydro-1H-pyrazino[1′,2′:4,5]pyrazino[2,3-c]quinolin-5(6H)-one], the figure is 630 nM.
In turn, `C=CC(=O)N1CCN2c3c(cnc4cc(-c5c(O)cccc5F)c(Cl)cc34)N(CCN(C)C)C[C@H]2C1` [Example 12, 1-((4aS)-11-Chloro-6-(2-(dimethylamino)ethyl)-10-(2-fluoro-6-hydroxyphenyl)-1,2,4,4a,5,6-hexahydro-3H-pyrazino[1′,2′:4,5]pyrazino[2,3-c]quinolin-3-yl)prop-2-en-1-one] showed an IC50 of 231 nM.
On to `C=CC(=O)N1CCN2c3c(cnc4c(F)c(-c5c(O)cccc5Cl)c(Cl)cc34)N(C)C(=O)[C@H]2C1` (single isomer, unassigned) [Compound 51], for which the IC50 was > 100000 nM.
The molecule `C=CC(=O)N1CCN2c3c(cnc4cc(-c5c(C)ccc6[nH]ncc56)c(Cl)cc34)OC[C@@H]2C1` (single isomer, unassigned) [Example 6] returned an IC50 of 662 nM.
Same read-out and setting: the value for `C=CC(=O)N1CCN2c3c(cnc4c(F)c(-c5c(C)ccc6[nH]cnc56)c(Cl)cc34)OC[C@H]2C1` (single isomer, unassigned) [Compound 78] was 7140 nM; that for `C=CC(=O)N1CCN2c3c(cnc4c(F)c(-c5c(C)ccc6[nH]c(=O)n(C)c56)c(Cl)cc34)OC[C@H]2C1` (single isomer, unassigned) [Compound 85] was 10 nM; that for `C=CC(=O)N1CCN2c3c(cnc4c(F)c(-c5c(C)ccc6[nH]cnc56)c(Cl)cc34)N(C)C(=O)[C@H]2C1` (single isomer, unassigned) [Compound 25] was 28 nM.
Still for that read-out and setting: as for `C=CC(=O)N1CCN2c3c(cnc4c(C)c(-c5c(O)cccc5F)c(C)cc34)N(C)C(=O)[C@H]2C1` (single isomer, unassigned) [Compound 44], the figure is 142 nM; as for `C=CC(=O)N1CCN2c3c(cnc4c(F)c(-c5c(C)ccc6c5C(=O)NC6)c(Cl)cc34)OC[C@H]2C1` (single isomer, unassigned) [Compound 87], 8600 nM.
Same read-out and setting: the value for `C=CC(=O)N1CCN2c3c(cnc4c(C)c(-c5c(O)cccc5F)c(C)nc34)N(C)C(=O)[C@H]2C1` (single isomer, unassigned) [Compound 91] was 35200 nM; that for `C=CC(=O)N1CCN2c3c(cnc4cc(-c5c(O)cccc5F)c(Cl)c(F)c34)N(C)C(=O)[C@H]2C1` [Compound 59, (4aR)-11-Chloro-12-fluoro-10-(2-fluoro-6-hydroxyphenyl)-6-methyl-3-(prop-2-enoyl)-2,3,4,4a-tetrahydro-1H-pyrazino[1′,2′:4,5]pyrazino[2,3-c]quinolin-5(6H)-one] was 202 nM; that for `C=CC(=O)N1CCN2c3c(cnc4c(F)c(-c5c(C)ccc6[nH]ncc56)c(Cl)cc34)N(C)C(=O)[C@H]2C1` (single isomer, unassigned) [Compound 50] was 9600 nM.
Consider `C[C@@H]1CN2c3c(cnc4c(F)c(-c5c(O)cccc5F)c(Cl)cc34)OC[C@H]2CN1C(=O)/C=C/CN(C)C` (single isomer, unassigned) [Compound 36], for which the half-inhibitory concentration (IC50) came to 28100 nM.
The same measure, in the same setting: the value for `C=CC(=O)N1CCN2c3c(cnc4c(F)c(-c5c(O)cccc5C(F)F)c(Cl)cc34)N(C)C(=O)[C@H]2C1` (single isomer, unassigned) [Compound 62] was 37 nM.
